# In patent US12398179B2, “Nanomolar peptides and derivatives to differentially modulate ephrin receptors” (Sanford Burnham Prebys Medical Discovery Institute, priority 2019, dated 2025):
# Non-standard residues stand in square brackets, D forms with d. Residues, ends and D or L forms follow the SMILES beside them. No end group written: not given here. *: point of attachment. Biotin = O=C1N[C@H]2[C@H](CS[C@H]2CCCCC(=O)*)N1; βAla = NCCC(=O)O
# Key:
# [1] = Peptide solubility in PBS/H2O
# EphA2 = EphA2 (Homo sapiens, UniProt P29317); assay: ELISA: inhibition of ephrin-A5 AP binding to immobilized EphA2 Fc; design: the immobilized EphA2 extracellular domain fused to the Fc portion of an antibody (EphA2 Fc); conditions: average ± SE
# Procedure: (FIG. 2A) Representative ELISAs comparing the ability of the peptides to inhibit binding of ephrin-A5 fused to alkaline phosphatase (ephrin-A5 AP) to the immobilized EphA2 extracellular domain fused to the Fc portion of an antibody (EphA2 Fc). The graphs show averages±SE from triplicate measurements from a representative experiment. IC50 values calculated from the fitted curves in each experiment are shown. All concentrations are nM and the 100 nM peptide concentration is outlined in red. (FIG. 2B) Ephrin-A5 AP binding to the indicated EphA receptors and ephrin-B2 AP binding to the indicated EphB receptors in the presence of the indicated peptide, normalized to ephrin binding without peptide. The bars show averages±SE from triplicate measurements.
# EphA2 LBD = biological target: T1, EphA2 LBD (Homo sapiens, UniProt P29317); assay: Isothermal titration calorimetry (ITC) of peptide binding; conditions: 1 mM biotin
# T1 construct: EphA2 LBD (residues 28-200); made in house; host or cells: E. coli Origami 2 (DE3)
# Procedure: For ITC, all peptides were dissolved in DMSO and both the EphA2 LBD and the peptides were diluted to obtain a final buffer containing 9.5 mM HEPES, pH 7.9, 95 mM NaCl, and 5% DMSO. […] Two-microliter aliquots of a peptide solution were injected into the cell containing 205 μL EphA2 LBD. 200-400 μM peptides were titrated into 20-40 μM EphA2 LBD. Experimental data were analyzed using the Origin software package (Microcal). The integrated values for the reaction heats were normalized to the amount of injected peptide after blank subtraction.
# [2] = PBS, Solubility in PBS (mg/ml), PBS (first figure of cell)
# [3] = water, Solubility in H2O (mg/ml), H2O (second figure of cell)
# EphA2, sequence (P29317 24-537 limits assumed, species assumed): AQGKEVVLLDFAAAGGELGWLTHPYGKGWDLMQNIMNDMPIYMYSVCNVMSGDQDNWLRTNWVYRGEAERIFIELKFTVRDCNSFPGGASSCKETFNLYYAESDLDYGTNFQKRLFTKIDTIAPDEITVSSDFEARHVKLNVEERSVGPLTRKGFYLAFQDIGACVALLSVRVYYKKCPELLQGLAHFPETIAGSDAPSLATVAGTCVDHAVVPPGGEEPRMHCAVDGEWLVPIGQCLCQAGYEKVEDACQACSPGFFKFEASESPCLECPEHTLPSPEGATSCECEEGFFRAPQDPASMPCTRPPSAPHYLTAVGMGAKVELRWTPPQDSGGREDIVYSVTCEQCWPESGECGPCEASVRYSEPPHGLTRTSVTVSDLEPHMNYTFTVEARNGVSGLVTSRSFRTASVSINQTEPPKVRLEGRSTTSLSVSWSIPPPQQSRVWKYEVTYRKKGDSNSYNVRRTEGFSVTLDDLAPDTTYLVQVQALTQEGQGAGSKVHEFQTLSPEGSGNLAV
# T1 sequence (P29317 28-200): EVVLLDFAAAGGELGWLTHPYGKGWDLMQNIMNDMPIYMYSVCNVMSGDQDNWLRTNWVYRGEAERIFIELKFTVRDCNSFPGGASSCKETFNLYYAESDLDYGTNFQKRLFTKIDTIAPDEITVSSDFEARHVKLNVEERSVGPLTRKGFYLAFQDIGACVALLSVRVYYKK
Compound,"solubility [1, 2]","solubility ([1]; H2O, Solubility in H2O (mg/ml), H2O (second figure of cell))","solubility [1, 3]",IC50 (EphA2),binding to the EphA2 LBD by ITC (in words) (EphA2 LBD)
CC(C)C[C@H](NC(=O)[C@H](Cc1c[nH]c2ccccc12)NC(=O)[C@H](C)NC(=O)CNC(=O)[C@@H](N)CSCC(N)=O)C(=O)N[C@@H](C)C(=O)N[C@@H](Cc1ccc(O)cc1)C(=O)N1CCC[C@H]1C(=O)N[C@@H](CC(=O)O)C(=O)N[C@@H](CO)C(=O)N[C@H](C(=O)N1CCC[C@H]1C(=O)N[C@@H](Cc1ccc(O)cc1)C(=O)N[C@@H](CCCNC(=N)N)C(=O)N1CCC[C@H]1C(=O)N[C@@H](CCCCNC(=O)CCCC[C@@H]1SC[C@@H]2NC(=O)N[C@@H]21)C(=O)O)C(C)C [CcamGA-WLA-YRPK-bio],< 100 µg/mL,–,–,–,–
CC(C)C[C@H](NC(=O)[C@H](Cc1c[nH]c2ccccc12)NC(=O)[C@H](C)NC(=O)[C@@H](N)CCCCNC(=O)CCCC[C@@H]1SC[C@@H]2NC(=O)N[C@@H]21)C(=O)N[C@@H](C)C(=O)N[C@@H](Cc1ccc(O)cc1)C(=O)N1CCC[C@H]1C(=O)N[C@@H](CC(=O)O)C(=O)N[C@@H](CO)C(=O)N[C@H](C(=O)N1CCC[C@H]1C(=O)N[C@@H](Cc1ccc(O)cc1)C(=O)N[C@@H](CCCNC(=N)N)C(=O)N1CCC[C@H]1C(=O)N[C@@H](CCCCN)C(N)=O)C(C)C [K-bioA-WLA-YRPKam],10000 µg/mL,10000 µg/mL,–,–,–
CSCC[C@H](NC(=O)[C@@H]1CCCN1C(=O)[C@@H](NC(=O)[C@H](CO)NC(=O)[C@H](CC(=O)O)NC(=O)[C@@H]1CCCN1C(=O)[C@H](Cc1ccc(O)cc1)NC(=O)[C@H](C)NC(=O)[C@H](CO)NC(=O)[C@@H](N)Cc1ccc(O)cc1)C(C)C)C(N)=O [YSA1-10am],10000 µg/mL,–,10000 µg/mL,–,–
CSCC[C@H](NC(=O)[C@H](CCSC)NC(=O)[C@@H]1CCCN1C(=O)[C@@H](NC(=O)[C@H](CO)NC(=O)[C@H](CC(=O)O)NC(=O)[C@@H]1CCCN1C(=O)[C@H](Cc1ccc(O)cc1)NC(=O)[C@H](C)NC(=O)[C@H](CO)NC(=O)[C@@H](N)Cc1ccc(O)cc1)C(C)C)C(=O)N[C@@H](CO)C(=O)NCC(=O)N[C@@H](CO)C(=O)NCC(=O)N[C@@H](CO)C(=O)N[C@@H](CCCCN)C(=O)O [YSA-GSGSK],10000 µg/mL,–,5000 µg/mL,4500 nM,–
CSCC[C@H](NC(=O)[C@H](CCSC)NC(=O)[C@@H]1CCCN1C(=O)[C@@H](NC(=O)[C@H](CO)NC(=O)[C@H](CC(=O)O)NC(=O)[C@@H]1CCCN1C(=O)[C@H](Cc1ccc(O)cc1)NC(=O)[C@H](C)NC(=O)[C@H](CO)NC(=O)[C@@H](N)Cc1ccc(O)cc1)C(C)C)C(=O)N[C@@H](CO)C(=O)N[C@@H](CCCCNC(=O)CCCC[C@@H]1SC[C@@H]2NC(=O)N[C@@H]21)C(=O)O [YSA-K-bio],10000 µg/mL,–,10000 µg/mL,–,–
"O=C(O)CCCC[C@@H]1SC[C@@H]2NC(=O)N[C@@H]21 [biotin, reference compound]",–,–,–,–,did not detect binding
CC(C)C[C@H](NC(=O)[C@H](Cc1c[nH]c2ccccc12)NC(=O)CCN)C(=O)N[C@@H](C)C(=O)N[C@@H](Cc1ccc(O)cc1)C(=O)N1CCC[C@H]1C(=O)N[C@@H](CC(=O)O)C(=O)N[C@@H](CO)C(=O)N[C@H](C(=O)N1CCC[C@H]1C(=O)N[C@@H](Cc1ccc(O)cc1)C(=O)NCC(=O)N[C@@H](CO)C(=O)NCC(=O)N[C@@H](CCCCNC(=O)CCCC[C@@H]1SC[C@@H]2NC(=O)N[C@@H]21)C(=O)O)C(C)C [βA-WLA-YGSGK-bio] (H-[βAla]WLAYPDSVPYGSGK(Biotin)-OH; N-terminus and C-terminus assumed),5000 µg/mL,–,5000 µg/mL,330 ± 40 nM,–
CC(C)C[C@H](NC(=O)[C@H](Cc1c[nH]c2ccccc12)NC(=O)CCN)C(=O)N[C@@H](C)C(=O)N[C@@H](Cc1ccc(O)cc1)C(=O)N1CCC[C@H]1C(=O)N[C@@H](CC(=O)O)C(=O)N[C@@H](CO)C(=O)N[C@H](C(=O)N1CCC[C@H]1C(=O)N[C@@H](Cc1ccc(O)cc1)C(=O)NCC(=O)N[C@@H](CO)C(=O)N[C@@H](CCCCNC(=O)CCCC[C@@H]1SC[C@@H]2NC(=O)N[C@@H]21)C(=O)O)C(C)C [βA-WLA-YGSK-bio] (H-[βAla]WLAYPDSVPYGSK(Biotin)-OH; N-terminus and C-terminus assumed),–,–,–,400 ± 70 nM,–
CC(C)C[C@H](NC(=O)[C@H](Cc1c[nH]c2ccccc12)NC(=O)CCN)C(=O)N[C@@H](C)C(=O)N[C@@H](Cc1ccc(O)cc1)C(=O)N1CCC[C@H]1C(=O)N[C@@H](CC(=O)O)C(=O)N[C@@H](CO)C(=O)N[C@H](C(=O)N1CCC[C@H]1C(=O)N[C@@H](Cc1ccc(O)cc1)C(=O)N[C@@H](CCCCNC(=O)CCCC[C@@H]1SC[C@@H]2NC(=O)N[C@@H]21)C(=O)O)C(C)C [βA-WLA-YK-bio] (H-[βAla]WLAYPDSVPYK(Biotin)-OH; N-terminus and C-terminus assumed),–,–,–,730 ± 90 nM,–
CC(C)C[C@H](NC(=O)[C@H](Cc1c[nH]c2ccccc12)NC(=O)CCN)C(=O)N[C@@H](C)C(=O)N[C@@H](Cc1ccc(O)cc1)C(=O)N1CCC[C@H]1C(=O)N[C@@H](CC(=O)O)C(=O)N[C@@H](CO)C(=O)N[C@H](C(=O)N1CCC[C@H]1C(=O)N[C@@H](Cc1ccc(O)cc1)C(=O)N[C@@H](CCCNC(=N)N)C(=O)O)C(C)C [βA-WLA-YR] (HELM PEPTIDE1{[bAla].W.L.A.Y.P.D.S.V.P.Y.R}$$$$V2.0; N-terminus and C-terminus assumed),5000 µg/mL,–,5000 µg/mL,390 ± 30 nM,–
CC(C)C[C@H](NC(=O)[C@H](Cc1c[nH]c2ccccc12)NC(=O)CCN)C(=O)N[C@@H](C)C(=O)N[C@@H](Cc1ccc(O)cc1)C(=O)N1CCC[C@H]1C(=O)N[C@@H](CC(=O)O)C(=O)N[C@@H](CO)C(=O)N[C@H](C(=O)N1CCC[C@H]1C(=O)N[C@@H](Cc1ccc(O)cc1)C(=O)N[C@@H](CO)C(=O)N[C@@H](CCCCNC(=O)CCCC[C@@H]1SC[C@@H]2NC(=O)N[C@@H]21)C(=O)O)C(C)C [βA-WLA-YSK-bio] (H-[βAla]WLAYPDSVPYSK(Biotin)-OH; N-terminus and C-terminus assumed),2000 µg/mL,–,–,–,–
CC(C)C[C@H](NC(=O)[C@H](Cc1c[nH]c2ccccc12)NC(=O)CCN)C(=O)N[C@@H](C)C(=O)N[C@@H](Cc1ccc(O)cc1)C(=O)N1CCC[C@H]1C(=O)N[C@@H](CC(=O)O)C(=O)N[C@@H](CO)C(=O)N[C@H](C(=O)N1CCC[C@H]1C(=O)N[C@@H](Cc1ccc(O)cc1)C(=O)N[C@@H](CO)C(=O)N[C@@H](CCCCN)C(=O)O)C(C)C [βA-WLA-YSK] (HELM PEPTIDE1{[bAla].W.L.A.Y.P.D.S.V.P.Y.S.K}$$$$V2.0; N-terminus and C-terminus assumed),5000 µg/mL,–,2000 µg/mL,380 ± 140 nM,–
CC(C)C[C@H](NC(=O)[C@H](Cc1c[nH]c2ccccc12)NC(=O)CCN)C(=O)N[C@@H](C)C(=O)N[C@@H](Cc1ccc(O)cc1)C(=O)N1CCC[C@H]1C(=O)N[C@@H](CC(=O)O)C(=O)N[C@@H](CO)C(=O)N[C@H](C(=O)N1CCC[C@H]1C(=O)N[C@@H](Cc1ccc(O)cc1)C(=O)N[C@@H](CO)C(=O)N1CCC[C@H]1C(=O)N[C@@H](CCCCNC(=O)CCCC[C@@H]1SC[C@@H]2NC(=O)N[C@@H]21)C(=O)O)C(C)C [βA-WLA-YSPK-bio] (H-[βAla]WLAYPDSVPYSPK(Biotin)-OH; N-terminus and C-terminus assumed),–,–,–,62 ± 3 nM,–
CC(C)C[C@H](NC(=O)[C@H](Cc1c[nH]c2ccccc12)NC(=O)CCN)C(=O)N[C@@H](C)C(=O)N[C@@H](Cc1ccc(O)cc1)C(=O)N1CCC[C@H]1C(=O)N[C@@H](CC(=O)O)C(=O)N[C@@H](CO)C(=O)N[C@H](C(=O)N1CCC[C@H]1C(=O)N[C@@H](Cc1ccc(O)cc1)C(N)=O)C(C)C [βA-WLA-Yam] (HELM PEPTIDE1{[bAla].W.L.A.Y.P.D.S.V.P.Y.[am]}$$$$V2.0; N-terminus assumed),–,–,5000 µg/mL,410 ± 50 nM,–
CSCC[C@H](NC(=O)[C@@H]1CCCN1C(=O)[C@@H](NC(=O)[C@H](CO)NC(=O)[C@H](CC(=O)O)NC(=O)[C@@H]1CCCN1C(=O)[C@H](Cc1ccc(O)cc1)NC(=O)[C@H](C)NC(=O)[C@H](CC(C)C)NC(=O)[C@H](Cc1c[nH]c2ccccc12)NC(=O)CCN)C(C)C)C(N)=O [βA-WLAam] (HELM PEPTIDE1{[bAla].W.L.A.Y.P.D.S.V.P.M.[am]}$$$$V2.0; N-terminus assumed),10000 µg/mL,–,10000 µg/mL,840 ± 80 nM,–
WLAYPDSVPM-NH2 [WLAam],–,–,–,1500 nM,–
